Test results taken from ChEMBL document CHEMBL4014302, “Studies on anti-hepatoma activity of Annona squamosa L. pericarp extract” (Bioorg Med Chem Lett, 2017).

Legend:
SMMC-7721 [1] = assay: Induction of apoptosis in human SMMC7721 cells assessed as live cells at IC50 after 24 hrs by annexin V/PI-staining based flow cytometry (reference value: 97.3 %); format: functional
SMMC-7721 [2] = assay: Cytotoxicity against human SMMC7721 cells after 48 hrs by MTT assay; format: functional, cell-based; conditions: SMMC-7721, 48 h
SMMC-7721 [3] = assay: Induction of apoptosis in human SMMC7721 cells assessed as early apoptotic cells at IC50 after 24 hrs by annexin V/PI-staining based flow cytometry (reference value: 0.6 %); format: functional
SMMC-7721 [4] = assay: Induction of apoptosis in human SMMC7721 cells assessed as late apoptotic cells at IC50 after 24 hrs by annexin V/PI-staining based flow cytometry (reference value: 0.5 %); format: functional
SMMC-7721 [5] = assay: Induction of apoptosis in human SMMC7721 cells assessed as necrotic cells at IC50 after 24 hrs by annexin V/PI-staining based flow cytometry (Rvb =1.6 %); format: functional
SMMC-7721 [6] = assay: Cell cycle arrest in human SMMC7721 cells assessed as sub-G1 phase accumulation at IC50 after 24 hrs by propidium iodide staining based flow cytometry (reference value: 0.8 %); format: functional
SMMC-7721 [7] = assay: Cell cycle arrest in human SMMC7721 cells assessed as G1 phase accumulation at IC50 after 24 hrs by propidium iodide staining based flow cytometry (reference value: 57.6 %); format: functional
SMMC-7721 [8] = assay: Cell cycle arrest in human SMMC7721 cells assessed as S phase accumulation at IC50 after 24 hrs by propidium iodide staining based flow cytometry (reference value: 12.7 %); format: functional
SMMC-7721 [9] = assay: Cell cycle arrest in human SMMC7721 cells assessed as G2/M phase accumulation at IC50 after 24 hrs by propidium iodide staining based flow cytometry (reference value: 28.8 %); format: functional
SMMC-7721 [10] = assay: Induction of apoptosis in human SMMC7721 cells assessed as increase in cleaved caspase 3 levels after 24 hrs by Western blot method; format: functional, cell-based
SMMC-7721 [11] = assay: Induction of apoptosis in human SMMC7721 cells assessed as increase in cleaved caspase 8 levels after 24 hrs by Western blot method; format: functional, cell-based
SMMC-7721 [12] = assay: Induction of apoptosis in human SMMC7721 cells assessed as increase in cleaved caspase 9 levels after 24 hrs by Western blot method; format: functional, cell-based
SMMC-7721 [13] = assay: Induction of apoptosis in human SMMC7721 cells assessed as increase in Bax levels after 24 hrs by Western blot method; format: functional, cell-based
SMMC-7721 [14] = assay: Induction of apoptosis in human SMMC7721 cells assessed as decrease in Bcl2 levels after 24 hrs by Western blot method; format: functional, cell-based
SMMC-7721 [15] = assay: Induction of apoptosis in human SMMC7721 cells assessed as live cells at half IC50 after 24 hrs by annexin V/PI-staining based flow cytometry (reference value: 97.3 %); format: functional
SMMC-7721 [16] = assay: Induction of apoptosis in human SMMC7721 cells assessed as early apoptotic cells at half IC50 after 24 hrs by annexin V/PI-staining based flow cytometry (reference value: 0.6 %); format: functional
SMMC-7721 [17] = assay: Induction of apoptosis in human SMMC7721 cells assessed as late apoptotic cells at half IC50 after 24 hrs by annexin V/PI-staining based flow cytometry (reference value: 0.5 %); format: functional
SMMC-7721 [18] = assay: Induction of apoptosis in human SMMC7721 cells assessed as necrotic cells at half IC50 after 24 hrs by annexin V/PI-staining based flow cytometry (Rvb =1.6 %); format: functional
SMMC-7721 [19] = assay: Cell cycle arrest in human SMMC7721 cells assessed as sub-G1 phase accumulation at half IC50 after 24 hrs by propidium iodide-staining based flow cytometry (reference value: 0.8 %); format: functional
SMMC-7721 [20] = assay: Cell cycle arrest in human SMMC7721 cells assessed as G1 phase accumulation at half IC50 after 24 hrs by propidium iodide-staining based flow cytometry (reference value: 57.6 %); format: functional
SMMC-7721 [21] = assay: Cell cycle arrest in human SMMC7721 cells assessed as S phase accumulation at half IC50 after 24 hrs by propidium iodide-staining based flow cytometry (reference value: 12.7 %); format: functional
SMMC-7721 [22] = assay: Cell cycle arrest in human SMMC7721 cells assessed as G2/M phase accumulation at half IC50 after 24 hrs by propidium iodide-staining based flow cytometry (reference value: 28.8 %); format: functional
SMMC-7721 [23] = assay: Induction of apoptosis in human SMMC7721 cells after 24 hrs by annexin V/PI-staining based flow cytometry; format: functional, cell-based
SMMC-7721 [24] = assay: Induction of apoptosis in human SMMC7721 cells assessed as condensed nuclei after 24 hrs by Hoechst 33258 staining based fluorescent microscopic method; format: functional, cell-based
SMMC-7721 [25] = assay: Induction of apoptosis in human SMMC7721 cells assessed as broken nuclei after 24 hrs by Hoechst 33258 staining based fluorescent microscopic method; format: functional, cell-based
H22 [26] = assay: Antitumor activity against mouse H22 cells implanted in Kunming mouse assessed as tumor weight at 15 mg/kg, po administered once daily for 7 days (reference value: 0.66 +/- 0.18 g); format: functional
H22 [27] = assay: Antitumor activity against mouse H22 cells implanted in Kunming mouse assessed as tumor growth inhibition at 15 mg/kg, po administered once daily for 7 days relative to control; format: functional; conditions: 168 h, read-out: TGI

C=C1C[C@@]23CC[C@H]4[C@@](C)(CCC[C@@]4(C)C(=O)O)[C@@H]2CC[C@H]1C3
Activity (SMMC-7721 [1]): 79.3%
IC50 (SMMC-7721 [2]): 67.4 µM
Activity (SMMC-7721 [3]): 12.9%
Activity (SMMC-7721 [4]): 5.2%
Activity (SMMC-7721 [5]): 2.6%
Activity (SMMC-7721 [6]): 1.2%
Activity (SMMC-7721 [7]): 73.3%
Activity (SMMC-7721 [8]): 7.7%
Activity (SMMC-7721 [9]): 18%
Activity (SMMC-7721 [10]): Dose-dependent effect
Activity (SMMC-7721 [11]): Dose-dependent effect
Activity (SMMC-7721 [12]): Dose-dependent effect
Activity (SMMC-7721 [13]): Dose-dependent effect
Activity (SMMC-7721 [14]): Dose-dependent effect
Activity (SMMC-7721 [15]): 80.4%
Activity (SMMC-7721 [16]): 10.7%
Activity (SMMC-7721 [17]): 5.1%
Activity (SMMC-7721 [18]): 3.8%
Activity (SMMC-7721 [19]): 1%
Activity (SMMC-7721 [20]): 61%
Activity (SMMC-7721 [21]): 11.2%
Activity (SMMC-7721 [22]): 26.9%
Activity (SMMC-7721 [23]): Dose-dependent effect
Activity (SMMC-7721 [24]): Dose-dependent effect
Activity (SMMC-7721 [25]): Dose-dependent effect

CC1=C[C@@]23CC[C@H]4[C@@](C)(CCC[C@@]4(C)C(=O)O)[C@@H]2CC[C@H]1C3
Activity (SMMC-7721 [1]): 75.4%
IC50 (SMMC-7721 [2]): 45.7 µM
Activity (SMMC-7721 [3]): 10.8%
Activity (SMMC-7721 [4]): 7.4%
Activity (SMMC-7721 [5]): 6.4%
Activity (SMMC-7721 [6]): 0.3%
Activity (SMMC-7721 [7]): 60.9%
Activity (SMMC-7721 [8]): 11%
Activity (SMMC-7721 [9]): 26.9%
Activity (SMMC-7721 [15]): 85.2%
Activity (SMMC-7721 [16]): 7.8%
Activity (SMMC-7721 [17]): 3.5%
Activity (SMMC-7721 [18]): 3.4%
Activity (SMMC-7721 [19]): 1.1%
Activity (SMMC-7721 [20]): 58.5%
Activity (SMMC-7721 [21]): 14.8%
Activity (SMMC-7721 [22]): 25.5%
Activity (SMMC-7721 [23]): Dose-dependent effect
Activity (SMMC-7721 [24]): Dose-dependent effect
Activity (SMMC-7721 [25]): Dose-dependent effect

O=c1[nH]cc(F)c(=O)[nH]1 [FLUOROURACIL]
Activity (H22 [26]): 0.36 g
inhibition in vivo at 15 mg/kg (H22 [27]): 44.7%
